Reference: publication PMC9503459, “Antifungal Activity, Structural Stability, and Immunomodulatory Effects on Human Immune Cells of Defensin from the Lentil Lens culinaris” (Membranes, 2022)
No end group written: not given here.

System: monocyte-derived mature dendritic cells (moDCs)
Test: Cytokine response by multiplex xMAP, moDCs
Format: cell-based, human
Details: 2 µM, 24 h
Description: Colorectal adenocarcinoma Caco-2 cell line (ATCC HTB-37) was cultured in complete DMEM/F12 (1:1) medium containing 10% fetal bovine serum (FBS, Gibco) and 1X antibiotic-antimycotic solution (1XAAS, Invitrogen, Waltham, MA, USA). The acute monocytic leukemia THP-1 line (ATCC TIB-202) was cultured in complete RPMI-1640 medium, containing 10% FBS, 1XAAS, and […]. THP-1 cells were differentiated into pro-inflammatory macrophages (Mφ1) with phorbol 12-myristate 13-acetate (Sigma-Aldrich) for 24 h and subsequently polarized with lipopolysaccharide from E. coli (Sigma-Aldrich) and rhIFN-γ (Sigma-Aldrich) for another 48 h according to previously reported protocol. All cells were cultured in a humidified CO2 incubator (5% CO2, 37 °C). Primary peripheral blood mononuclear cells (PBMCs) collected from a healthy donor were purchased from American Type Culture Collection (ATCC PCS-800-011). CD4^+ T-helper and CD8^+ T cytotoxic cells were isolated from PBMCs by magnetic separation with mouse anti-human CD4-PE (clone 13B8.2, Beckman Coulter Diagnostics, Pasadena, CA, USA) and CD8-PE (clone REA734, Miltenyi Biotec, Bergisch Gladbach, Germany), Anti-PE MicroBeads (Miltenyi Biotec), and LS Separation Columns (Miltenyi Biotec). Isolated CD4^+ and CD8^+ cells were expanded separately with Dynabeads™ Human T-Expander CD3/CD28 (Gibco, Waltham, MA, USA) in RPMI-1640 supplemented with 10% FBS, 1XAAS and 100 U/mL rh-IL-2 (Gibco). Regulatory CD4^+ FoxP3^+ T cells (Tregs) were isolated from PBMCs by magnetic separation with CD4^+CD25^+ Regulatory T Cell Isolation Kit, human (Miltenyi Biotec). Primary CD14^+ blood monocytes were isolated from PBMCs by adherence according to standard technique. Monocyte-derived mature dendritic cells (moDCs) were obtained from CD14^+ blood monocytes according to the previously reported protocol. Briefly, blood monocytes were incubated in complete RPMI-1640 medium, containing 10% FBS, 1XAAS, 800 U/mL rhGM-CSF (Sci-Store, Russia, Moscow) and 500 U/mL rhIL-4 (Sci-Store) for 3 days. Fresh complete RPMI-1640 medium with rhGM-CSF and rhIL-4 was added to the culture on day 3. On day 5, fresh complete RPMI-1640 containing 100 U/mL rhTNF-α (Sigma) as well as 800 U/mL rhGM-CSF and 500 U/mL rhIL-4 was added and the culture was incubated for another 4 days until full maturation.
Caco-2 cells were seeded into the wells of a 48-well plate, coated with 0.1% bovine collagen (Sigma-Aldrich) for 24 h, 3 weeks before the experiment with complete DMEM/F12 (1:1) medium renewal every 2–3 days. Monocytes, moDCs, CD4^+ T-helper and CD8^+ T cytotoxic cells, Mφ1, and Regulatory CD4^+ FoxP3^+ T cells were seeded into the wells of 48-well plates in the complete RPMI-1640 medium supplemented with 10% Human AB serum (HABS, Capricorn Scientific, Ebsdorfergrund, Germany) and 1XAAS 24 h prior to the experiment; medium in Caco-2-containing wells was also replaced with the same medium. After 24 h, half of the medium in each well was replaced by fresh complete RPMI-1640 medium with 10% HABS, supplemented with 4 µM of Lc-def for the sample wells or fresh medium alone for the control wells. Cell cultures were kept in CO2-incubator (5% CO2, 37 °C) for another 24 h. Culture supernatants were collected 24 h later and stored at −70 °C degrees less than one month prior to the analytes assessment. […]

Question: Which results are given for “Lc-def: defensin from lentil Lens culinaris seeds (UniProt:B3F051), recombinant, overexpressed in Escherichia coli (KTCENLSDSFKGPCIPDGNCNKHCKEKEHLLSGRCRDDFRCWCTRNC; disulfide (positions not given here); ends not checked; also: disulfide bonds present, pairing not given here; UniProt B3F051 28-74, looked up)”?
Answer: EGF: 2.16 pg/mL; Eotaxin: <3.23↓ pg/ml; FGF-2: 34.19 pg/mL; FLT-3L: 0.84 pg/mL; Fractalkine: <23.19↓ pg/ml; G-CSF: 4.71 pg/mL; GM-CSF: 10.34 pg/mL; GROa: <0.67↓ pg/ml; IFNa2: 7.77 pg/mL; IFNg: 3.79 pg/mL; IL-1RA: 37.33 pg/mL; IL-1a: 20.45 pg/mL; IL-1b: <18.72↓ pg/ml; IL-2: 0.98 pg/mL; IL-3: <0.48↓ pg/ml; IL-4: <0.31↓ pg/ml; IL-5: 2.41 pg/mL; IL-6: 1.12 pg/mL; IL-7: <0.33↓ pg/ml; IL-8: 162.8 pg/mL; IL-9: 4.1 pg/mL; IL-10: 14.42 pg/mL; IL-12 (p40): 19.56 pg/mL; IL-12 (p70): <1.48↓ pg/ml; IL-13: 11.42 pg/mL; IL-15: 15.16 pg/mL; IL-17A: <1.55↓ pg/ml; IL-17E/IL-25: <20.59↓ pg/ml; IL-17F: <16.96↓ pg/ml; IL-18: 2.04 pg/mL; IL-22: 9.4 pg/mL; IL-27: 51.46 pg/mL; IP-10: 1871 pg/mL; M-GSF: 78 pg/mL; MCP-1: 782.17 pg/mL; MCP-3: 29.76 pg/mL; MDC: 1903 pg/mL; MIG: 33510 pg/mL; MIP-1a: 119.77 pg/mL; MIP-1b: 243.76 pg/mL; PDGF-AA: 51.36 pg/mL; PDGF-AB/BB: 107.03 pg/mL; RANTES: 15.66 pg/mL; TGF-a: 75.94 pg/mL; TNFa: 21.61 pg/mL; TNFb: <0.73↓ pg/ml; VEGFa: <1.27↓ pg/ml; changes in cytokine profiles: did not induce significant changes; sCD40L: 84.33 pg/mL
